According to patent US11236068B2, “Fused ring compounds” (Genentech, Inc., priority 2018, dated 2022):

Molecular target: K-Ras G12C (Homo sapiens (Human), UniProt P01116, G12C)
Experiment: Western blot assay for in cell alkylation of K-Ras G12C (HCC1171 cells)
Format: cell-based
Conditions: 18 hours at 37° C., 7 point dose response
Protocol: HCC1171 cells were maintained in RPMI1640 supplemented with 10% FBS. Cells were plated in a 96-well plate at 20,000 cells/well and the following day compounds were added to the cells. After 18 hours at 37° C., cells were lysed in RIPA buffer (Sigma RO278) with 0.5% SDS and protease/phosphatase inhibitor cocktail. After through mixing to enable complete lysis, the lysates were cleared by centrifugation before 20 µl was transferred from each well and combined with loading buffer and reducing agent. After heating for 10 minutes at 95° C., […] of each sample was loaded onto a 4-20% Tris-Glycine gel and electrophoresed at 110V for 165 minutes in SDS-PAGE running buffer. Gels were transferred to a nitrocellulose membrane, blocked for 1 hour and stained overnight at 4° C. with primary antibody against K-Ras (polyclonal Proteintech 12063-1-AP). The membrane was then washed thoroughly and counterstained with anti-rabbit IRDye 800CW (LI-COR 926-32211) for one hour at room temperature. After final washes, the membrane was imaged on a LI-COR Odyssey CLx at medium resolution. […] To quantify this affect, the LICOR software was used to draw a rectangle over alkylated and unalkylated bands for each well and measured the total fluorescent intensity (FI) in each of these bands. The following formula was then used to calculate % alkylation: FI(alkylated)/(FI(alkylated)+FI(unalkylated))*100 for each well.
A 7 point dose response curve was used to determine the IC50 for each compound. Cell alkylation data are presented below in Table 3.

Sequence of K-Ras G12C (P01116 other isoform, or with tags, fused parts or gaps G12C): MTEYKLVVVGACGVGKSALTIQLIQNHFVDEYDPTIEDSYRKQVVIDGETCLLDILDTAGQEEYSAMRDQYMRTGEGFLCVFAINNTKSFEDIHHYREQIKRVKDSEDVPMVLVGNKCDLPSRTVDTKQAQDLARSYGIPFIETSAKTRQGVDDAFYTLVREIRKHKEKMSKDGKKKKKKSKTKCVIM

Structure (SMILES) | EC50
C=C(F)C(=O)N1CCN(c2ncnc3cc(-c4nc(N)ccc4C(F)(F)F)c(Cl)cc23)C[C@@H]1C#N [Example 46b, (2R)-4-[7-[6-amino-3-(trifluoromethyl)pyridin-2-yl]-6-chloroquinazolin-4-yl]-1-(2-fluoroprop-2-enoyl)piperazine-2-carbonitrile] | 0.27 µM
C=CC(=O)N1CCN(c2ncnc3cc(-c4nc(N)ccc4C4CC4)c(OC)cc23)CC1 [Example 47, 1-[4-[7-(6-amino-3-cyclopropylpyridin-2-yl)-6-methoxyquinazolin-4-yl]piperazin-1-yl]prop-2-en-1-one] | 3.9 µM
C=C(F)C(=O)N1CCN(c2nc(OC[C@@H]3CCCN3C)nc3cc(-c4nc(N)cc(C)c4C(F)(F)F)c(Cl)cc23)CC1CC#N (stereo partly drawn) [Example 55, 2-[4-[7-[6-amino-4-methyl-3-(trifluoromethyl)-2-pyridyl]-6-chloro-2-[[(2S)-1-methylpyrrolidin-2-yl]methoxy]quinazolin-4-yl]-1-(2-fluoroprop-2-enoyl)piperazin-2-yl]acetonitrile] | 0.026 µM
C=C(F)C(=O)N1CCN(c2nc(OC[C@@H]3C[C@@H](F)CN3C)nc3cc(-c4nc(N)cc(C)c4C(F)(F)F)c(Cl)cc23)CC1CC#N (stereo partly drawn) [Example 56, 2-[4-[7-[6-amino-4-methyl-3-(trifluoromethyl)-2-pyridyl]-6-chloro-2-[[(2S,4R)-4-fluoro-1-methyl-pyrrolidin-2-yl]methoxy]quinazolin-4-yl]-1-(2-fluoroprop-2-enoyl)piperazin-2-yl]acetonitrile] | 0.026 µM
C=C(F)C(=O)N1CCN(c2nc(OC[C@@H]3CCCN3C)nc3cc(-c4nc(N)cc(C)c4C(F)(F)F)c(Cl)cc23)CC1CF (stereo partly drawn) [Example 57, 1-[4-[7-[6-amino-4-methyl-3-(trifluoromethyl)-2-pyridyl]-6-chloro-2-[[(2S)-1-methylpyrrolidin-2-yl]methoxy]quinazolin-4-yl]-2-(fluoromethyl)piperazin-1-yl]-2-fluoro-prop-2-en-1-one] | 0.23 µM
C=C(F)C(=O)N1CC(C)N(c2nc(OC[C@@H]3C[C@@H](F)CN3C)nc3cc(-c4nc(N)cc(C)c4C(F)(F)F)c(Cl)cc23)C[C@H]1CC#N (stereo partly drawn) [Example 58, 2-[(2R)-4-[7-[6-amino-4-methyl-3-(trifluoromethyl)-2-pyridyl]-6-chloro-2-[[(2S,4R)-4-fluoro-1-methyl-pyrrolidin-2-yl]methoxy]quinazolin-4-yl]-1-(2-fluoroprop-2-enoyl)-5-methyl-piperazin-2-yl]acetonitrile] | 0.033 µM
C=CC(=O)N1C[C@H](C)N(c2ncnc3cc(-c4nc(N)cc(C)c4C(F)(F)F)c(Cl)cc23)[C@@H](C)C1 [Example 60, 1-[(3S,5S)-4-[7-[6-amino-4-methyl-3-(trifluoromethyl)-2-pyridyl]-6-chloro-quinazolin-4-yl]-3,5-dimethyl-piperazin-1-yl]prop-2-en-1-one] | 0.072 µM
C=CC(=O)N1CCN(c2nc(OC3CCCC3N(C)C)nc3cc(-c4nc(N)cc(C)c4C(F)(F)F)c(Cl)cc23)[C@@H](C)C1 (stereo partly drawn) [Example 66, 1-[(3S)-4-[7-[6-amino-4-methyl-3-(trifluoromethyl)-2-pyridyl]-6-chloro-2-[2-(dimethylamino)cyclopentoxy]quinazolin-4-yl]-3-methyl-piperazin-1-yl]prop-2-en-1-one] | 0.028 µM
C=CC(=O)N1CCN(c2nc(OC[C@@H]3CCC4(CC4)N3C)nc3cc(-c4nc(N)ccc4C(F)(F)F)c(Cl)cc23)CC1 [Example 72, (S)-1-(4-(7-(6-amino-3-(trifluoromethyl)pyridin-2-yl)-6-chloro-2-((4-methyl-4-azaspiro[2.4]-heptan-5-yl)methoxy)quinazolin-4-yl)piperazin-1-yl)prop-2-en-1-one] | 0.055 µM
C=CC(=O)N1CCN(c2nc(OCC3(C)CC(F)(F)CN3C)nc3cc(-c4nc(N)ccc4C(F)(F)F)c(Cl)cc23)CC1 (centres unmarked) [Example 73, 1-(4-(7-(6-amino-3-(trifluoromethyl)pyridin-2-yl)-6-chloro-2-((4,4-difluoro-1,2-dimethylpyrrolidin-2-yl)methoxy)quinazolin-4-yl)piperazin-1-yl)prop-2-en-1-one] | 0.11 µM
C=CC(=O)N1CCN(c2nc(OC(C)(C)[C@@H]3CCCN3C)nc3cc(-c4nc(N)ccc4C(F)(F)F)c(Cl)cc23)CC1 [Example 74, 1-[4-[7-[6-amino-3-(trifluoromethyl)-2-pyridyl]-6-chloro-2-[1-methyl-1-[(2S)-1-methylpyrrolidin-2-yl]ethoxy]quinazolin-4-yl]piperazin-1-yl]prop-2-en-1-one] | 0.11 µM

Other lines, results leading:

EC50 | Structure (SMILES)
16 µM | C=CC(=O)N1CCN(c2ncnc3cc(-c4nc(N)ccc4C(F)F)c(Cl)cc23)CC1 [Example 41, 1-(4-[7-[6-amino-3-(difluoromethyl)pyridin-2-yl]-6-chloroquinazolin-4-yl]piperazin-1-yl)prop-2-en-1-one]
0.062 µM | C=CC(=O)N1CCN(c2ncnc3cc(-c4nc(N)cc(C)c4C(F)(F)F)c(Cl)cc23)CC1 [Example 44, 1-(4-[7-[6-amino-4-methyl-3-(trifluoromethyl)pyridin-2-yl]-6-chloroquinazolin-4-yl]piperazin-1-yl)prop-2-en-1-one]
2.4 µM | C=CC(=O)N1CCN(c2nc(NCCN(C)C)nc3cc(-c4nc(N)ccc4C(F)(F)F)c(Cl)cc23)CC1 [Example 45, 1-(4-[7-[6-amino-3-(trifluoromethyl)pyridin-2-yl]-6-chloro-2-[[2-(dimethylamino)ethyl]amino]quinazolin-4-yl]piperazin-1-yl)prop-2-en-1-one]
0.25 µM | C=CC(=O)N1CCN(c2ncnc3cc(-c4nc(N)cc5ccc(F)cc45)c(Cl)cc23)CC1 [Example 49, 1-[4-[7-(3-amino-7-fluoroisoquinoline-1-yl)-6-chloroquinazolin-4-yl]piperazin-1-yl]prop-2-en-1-one]
5.3 µM | C=CC(=O)N1CC(c2ncnc3cc(-c4nc(N)ccc4C(F)(F)F)c(Cl)cc23)C1 [Example 50, 1-(3-[7-[6-amino-3-(trifluoromethyl)pyridin-2-yl]-6-chloroquinazolin-4-yl]azetidin-1-yl)prop-2-en-1-one]
2.8 µM | C=CC(=O)N1CCN(c2ncnc3cc(-c4nc(N)ccc4CC(F)(F)F)c(Cl)cc23)CC1 [Example 51, 1-[4-[7-[6-amino-3-(2,2,2-trifluoroethyl)-2-pyridyl]-6-chloro-quinazolin-4-yl]piperazin-1-yl]prop-2-en-1-one]
0.086 µM | C=CC(=O)N1CCN(c2ncnc3cc(-c4nc(N)cc(CC)c4C(F)(F)F)c(Cl)cc23)CC1 [Example 52, 1-[4-[7-[6-amino-4-ethyl-3-(trifluoromethyl)-2-pyridyl]-6-chloro-quinazolin-4-yl]piperazin-1-yl]prop-2-en-1-one]
3.4 µM | C=CC(=O)N1CCN(c2ncnc3cc(-c4nc(NC)ccc4C(F)(F)F)c(Cl)cc23)CC1 [Example 53, 1-(4-[6-chloro-7-[6-(methylamino)-3-(trifluoromethyl)pyridin-2-yl]quinazolin-4-yl]piperazin-1-yl)prop-2-en-1-one]
0.14 µM | C=CC(=O)N1CCN(c2ncnc3cc(-c4nc(N)ccc4C(F)(F)F)c(Cl)cc23)[C@@H](C)C1 [Example 54, 1-[(3S)-4-[7-[6-amino-3-(trifluoromethyl)pyridin-2-yl]-6-chloroquinazolin-4-yl]-3-methylpiperazin-1-yl]prop-2-en-1-one]
